T1: mCRY2-PHR (Mus musculus, UniProt Q9R194)
T1 sequence (Q9R194 1-512): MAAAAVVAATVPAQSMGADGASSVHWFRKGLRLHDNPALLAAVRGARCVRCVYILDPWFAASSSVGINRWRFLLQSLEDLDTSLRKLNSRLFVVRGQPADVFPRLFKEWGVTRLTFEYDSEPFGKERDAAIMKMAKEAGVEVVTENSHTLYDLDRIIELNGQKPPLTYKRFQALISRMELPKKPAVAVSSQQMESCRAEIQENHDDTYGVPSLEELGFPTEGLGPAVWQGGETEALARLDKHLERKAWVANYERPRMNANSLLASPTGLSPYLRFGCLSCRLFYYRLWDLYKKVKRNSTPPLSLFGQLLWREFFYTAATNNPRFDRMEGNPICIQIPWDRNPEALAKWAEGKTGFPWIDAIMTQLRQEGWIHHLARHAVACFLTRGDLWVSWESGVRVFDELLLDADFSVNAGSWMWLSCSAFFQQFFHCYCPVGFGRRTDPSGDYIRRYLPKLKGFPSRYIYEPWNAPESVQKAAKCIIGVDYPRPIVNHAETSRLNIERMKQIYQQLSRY

T2: GST-tagged mCRY2 (1-544) (mouse, UniProt Q9R194 1-544)
T2 sequence: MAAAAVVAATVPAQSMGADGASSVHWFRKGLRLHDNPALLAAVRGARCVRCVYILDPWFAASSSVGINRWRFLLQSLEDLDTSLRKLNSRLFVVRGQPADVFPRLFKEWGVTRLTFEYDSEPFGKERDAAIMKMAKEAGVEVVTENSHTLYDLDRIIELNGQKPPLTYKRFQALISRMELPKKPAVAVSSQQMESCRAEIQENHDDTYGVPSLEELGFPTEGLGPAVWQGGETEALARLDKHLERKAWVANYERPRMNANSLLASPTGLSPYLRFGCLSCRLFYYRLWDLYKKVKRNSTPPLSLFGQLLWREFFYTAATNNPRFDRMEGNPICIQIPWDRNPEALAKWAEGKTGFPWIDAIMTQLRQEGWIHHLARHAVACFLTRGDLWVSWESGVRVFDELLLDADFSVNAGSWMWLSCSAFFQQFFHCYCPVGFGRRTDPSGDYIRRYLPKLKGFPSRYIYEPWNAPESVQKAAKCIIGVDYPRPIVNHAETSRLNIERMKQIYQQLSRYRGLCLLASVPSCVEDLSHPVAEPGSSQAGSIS


How the values were obtained:
mCRY2-PHR = target: T1, mCRY2-PHR; assay: quenching of FAD fluorescence; format: binding
GST-tagged mCRY2 (1-544) = target: T2, GST-tagged mCRY2 (1-544); assay: pull-down

| Molecule | Kd (mCRY2-PHR) | binding result (GST-tagged mCRY2 (1-544)) |
| --- | --- | --- |
| Cc1cc2nc3c(=O)[nH]c(=O)nc-3n(C[C@H](O)[C@H](O)[C@H](O)COP(=O)(O)OP(=O)(O)OC[C@H]3O[C@@H](n4cnc5c(N)ncnc54)[C@H](O)[C@@H]3O)c2cc1C [FAD] | ~40 µM | – |
| Strep-tagged full-length Fbxl3 (natural protein) MKRGGRDSDRNSSEEGTAEKSKKLRTTNEHSQTCDWGNLLQDIILQVFKYLPLLDRAHASQVCRNWNQVFHMPDLWRCFEFELNQPATSYLKATHPELIKQIIKRHSNHLQYVSFKVDSSKESAEAACDILSQLVNCSLKTLGLISTARPSFMDLPKSHFISALTVVFVNSKSLSSLKIDDTPVDDPSLKVLVANNSDTLKLLKMSSCPHVSPAGILCVADQCHGLRELALNYHLLSDELLLALSSEKHVRLEHLRIDVVSENPGQTHFHTIQKSSWDAFIRHSPKVNLVMYFFLYEEEFDPFFRYEIPATHLYFGRSVSKDVLGRVGMTCPRLVELVVCANGLRPLDEELIRIAERCKNLSAIGLGECEVSCSAFVEFVKMCGGRLSQLSIMEEVLIPDQKYSLEQIHWEVSKHLGRVWFPDMMPTW | – | binds |
